From article PMC12002301, “Discovery and functional characterization of a bombesin-type neuropeptide signaling system in an invertebrate” (Proceedings of the National Academy of Sciences of the …, 2025)

Tested on: tube foot preparations
Experiment: In vitro contraction of tube foot preparations
Set-up: species or system Asterias rubens
Settings: words, ArBN 10^-9 to 10^-6 M
Method: ArBN (EPRRNYNRVFGPTY-NH2), ArBN5-14 (NYNRVFGPTY-NH2), and ArBNP65-81 (EPMPSSLALYIANLSP-NH2), were tested for effects on in vitro cardiac stomach and tube foot preparations from A. rubens. The preparations were dissected as described previously ([43], [59]–[61]), with the organs immersed in ice-cold artificial seawater during dissection. A description of the methods employed for investigation of in vitro effects of ArBN on cardiac stomach and tube foot preparations from A. rubens is included in SI Appendix, SI Methods. […]
Wax was removed from slides using xylene (3 × 10 min) and then slides were immersed in 100% ethanol (2 × 10 min). 0.3% hydrogen peroxide (VWR Chemicals, UK) in methanol was used to quench endogenous peroxidases for 30 min and then an ethanol series (90%, 70%, 50%), distilled water and PBST were used to rehydrate the tissue sections. 5% goat serum (Sigma-Aldrich, UK) made up in PBST was used for blocking for 2 h at room temperature. […]
All the dissected preparations were set up in an aerated organ bath filled with 20 ml artificial seawater maintained at approximately 11°C. Changes in the contractile state of preparations were detected by the transducer, which was linked via a bridge amplifier (FE221 Bridge Amp, ADInstruments Ltd, Oxford, UK) to data acquisition hardware (PowerLab 2/36, ADInstruments Ltd, Oxford, UK). […]

Substance | effect on tube foot preparations
NYNRVFGPTY-NH2 [ArBN5-14, C-terminally amidated 10-residue peptide corresponding to the C-terminal region of ArBN] | neither ArBN5-14 nor ArBNP65-81 had any observable effect
EPMPSSLALYIANLSP-NH2 [ArBNP65-81, C-terminally amidated 16-residue peptide predicted to be derived from residues 65 to 81 of ArBNP] | neither ArBN5-14 nor ArBNP65-81 had any observable effect
